Test results reported in patent publication US20260335468A1, “MOLECULAR RADIOAFTERGLOW PROBES FOR CANCER RADIODYNAMIC THERANOSTICS” (NANYANG TECHNOLOGICAL UNIVERSITY, priority 2023, published 2026).

How the values were obtained:
[1] = Radio afterglow spectra, intensity and half-life of luminophores in PBS after X-ray; type: physicochemical
Protocol: The optical properties of DPAs and IDPAs were investigated in an aqueous solution (FIGS. 2 and 3). […] Their half-lives ranged from 9.2 to 196.8 min (FIG. 4e).
DPAs or IDPAs (100 μM) in 0.01 M PBS (pH 7.4, 50% DMSO) were irradiated by X-rays at 250 μGy s^−1 for 20 s (total, 5 mGy) under the specific setup parameter of 10 kV and 75 μA. Then, the radio afterglow signal was collected with an IVIS imaging system under the bioluminescence mode with an open filter and an acquisition time of 60 s. Finally, the radio afterglow intensities were quantified by a region-of-interest analysis using Living Image 4.3 software. In addition, the radio afterglow spectra of the candidates were acquired under the same test conditions with specific emission filters, and time courses of the signal were recorded as a function of time.

[2] = Afterglow through chicken breast tissue (tissue penetration depth study); type: physicochemical
Protocol: IDPASu (100 M, 100 l) solution in a round cap with a diameter of 1 cm was prepared and placed under the chicken breast tissue with different thicknesses (0, 1.0, 2.5, 5.0, 10.0 and 15.0 cm). To avoid the influence of afterglow intensity differences on tissue penetration, the X-ray source (Moxtek, Inc.) and xenon lamp (PLS-SEX300D, Beijing Perfectlight Technology Co., Ltd.) were optimized to ensure that all the samples at 0 cm (without coverage) received the same dose of X-rays (5 mGy, 250 μGy s^−1 for 20 s) or light (180 mW cm^−2 for 20 s) and thus the same afterglow intensity. After the cessation of irradiation, radio afterglow or photoafterglow was detected with or without the chicken breast tissues using the IVIS bioluminescence mode with an open filter and acquisition time of 120 s.
To induce afterglow, IDPASu was irradiated with X-ray or light through chicken breast tissues before signal detection (FIGS. 11a-b). To eliminate the influence of intensity difference on tissue penetration, X-ray and light irradiation were optimized to ensure similar intensity without tissue coverage. […] Radio afterglow of IDPASu was inducible and detectable even through ~15 cm tissue, showing ~4.2-fold higher signal than that of IDPASu without X-ray irradiation and tissue (FIG. 11d).

[3] = ^1O2 generation at tissue depth (X-ray or light through chicken breast tissue); type: physicochemical
Protocol: (§1) To study ^1O2 generation, a mixture of DPAS or IDPAS (100 M) and TEMP (10 mM) in PBS (0.01 M, pH 7.4, 50% DMSO) was irradiated by X-rays at 2 Gy (100 mGy s^−1 for 20 s) or 5 mGy (250 μGy s^−1 for 20 s). The ESR signals of the mixture were recorded with a Bruker A300 instrument. The ESR signal of the free radical 2,2,6,6-tetramethyl-1-piperidinyloxyl (g=2.0060) was generated by the reaction of ^1O2 with TEMP. The ^1O2 quencher NaN3 (1 mM) was added to validate the afterglow mechanism of IDPASu. Additionally, other commercially available radio sensitizers (such as acridine orange, hematoporphyrin and verteporfin) were measured and compared. The procedure of block depths was similar to that of the tissue penetration depth study and the ^1O2 generation for different depth tissues was measured. The ESR signal changes of MRAP in the absence or presence of CatB were measured in a similar way. The ESR signals of 2,2,6,6-tetramethyl-1-piperidinyloxyl from the reaction of ^1O2 with TEMP were plotted as a function of the concentration of ^1O2, which was generated by the addition of NaOCl to H2O2. This generated the standard curve between the ESR intensity and ^1O2 concentration.
The deep-tissue radiodynamic process of IDPASu was tested by measuring ^1O2 generation at different tissue depths and compared with photosensitization (FIG. 11c).

[4] = X-ray-induced NIR afterglow properties (Table 3); settings: X-ray 0.005 Gy
Excerpt: To enable radio afterglow for organic molecules, we proposed a radiodynamic approach based on organic luminophores (DPAs and IDPAs) that were able to harvest X-ray energy for an in situ cycloaddition reaction to form self-luminescent chemical defects (FIG. 4b). This is mechanistically different from inorganic nanophosphors wherein the host materials (for example, fluoride and aluminosilicate) absorb X-rays, lattice defects delay excitons, and rare-earth/transition metal ion dopants (for example, Nd^3+ and Eu^3+) emit light (Richard, C. & Viana, B., Light.: Sci. Appl. 2022, 11, 123). Because of the presence of heavy atoms (iodine), IDPAs had higher radiodynamic ^1O2 generation and stronger radio afterglow emission than the iodine-free counterpart (DPAs). The radio afterglow dynamic processes of IDPAs were inducible even at a tissue depth of 15 cm, which was impossible when using light.

[5] = ^1O2 generation upon X-ray irradiation (ESR, TEMP trap); type: physicochemical; settings: X-ray irradiation, ESR
Protocol: as §1

Heat generation study = type: physicochemical; settings: 100 μM, X-ray 5 mGy
Protocol: IDPASu (100 μM, 100 μL) solution and PBS in a round cap with the diameter of 1 cm were prepared and then irradiated by X-ray at dose of 5 mGy (250 μGy·s^−1 for 20 s), respectively. The temperatures of the IDPASu solution and PBS were recorded by FUR Infrared Camera (FLIR A35-Series, FUR Systems).

[6] = HPLC analysis of IDPASu after X-ray irradiation; type: physicochemical
Protocol: HPLC purification and analyses were performed with an Agilent 1260 system using methanol/H2O or acetonitrile/H2O as an eluent. X-ray irradiation was conducted with MOXTEK MAGPRO (Moxtek, Inc. 452 West 1260 North Orem, UT 84057) and the dose was calibrated by RAYSAFE R/F X2 X (FLUKE, USA). White-light irradiation was used by a xenon lamp PLS-SEX300D (Beijing Perfectlight Technology Co., Ltd.).
To study the radio afterglow mechanism, the sample of IDPASu after X-ray irradiation was analysed with HPLC and high-resolution mass spectrometry.

[7] = X-ray 2 Gy, 100 mGy s^−1 for 20 s

radio afterglow emission maximum ([1]; X-ray 250 μGy s^−1 for 20 s, aqueous solution): ~ 773 nm
λem [4]: ~773 nm
heat generation upon radiation (Heat generation study): did not cause any heat generation
conversion yield to activated IDPASu (peak at 6.0 min) [6, 7]: 7.6%
conversion yield to dioxetane compound (peak at 14.8 min) [6, 7]: 3.3%
luminophore consumed by one cycle of irradiation ([6]; one cycle at 250 μGy s^−1 for 20 s, HPLC): ~ 3%
Structure (SMILES): COC(=C1C2CC3CC(C2)CC1C3)c1cc(O)c(I)cc1/C=C/C1=CC(=C(C#N)C#N)c2ccccc2S1 [IDPASu]
radio afterglow intensity increase versus iodine-free counterpart ([1]; 100 μM, PBS pH 7.4, 50% DMSO, X-ray 5 mGy): 6.46 fold
correlation of radio afterglow signal with concentration ([1]; IDPASu solution): linear correlation
long-lasting radio afterglow, up to ([1]; X-ray 250 μGy s^−1 for 20 s): ~ 25 h
radio afterglow brightness / intensity ([1]; X-ray irradiation): highest brightness
repetitive induction of radio afterglow ([1]; after ten cycles of X-ray irradiation): minimal intensity decrease after ten cycles
radio afterglow signal through ~15 cm tissue versus IDPASu without X-ray irradiation and tissue ([2]; 15 cm chicken breast tissue): ~ 4.2 fold
penetration depth, Detection with tissue (induction without tissue) ([2]; X-ray 0.005 Gy): 15 cm
penetration depth, Induction and detection through tissue ([2]; X-ray 0.005 Gy): 5 cm
radio afterglow intensity at tissue depth of 1 cm ([2]; induction by X-ray through tissue, detection without tissue): ~ 1.79×10^6 photons s^−1 cm^−2 sr^−1
photoafterglow intensity at tissue depth of 1 cm ([2]; induction by light through tissue, detection without tissue): 7.20×10^4 photons s^−1 cm^−2 sr^−1
decrease of ^1O2 concentration at tissue depth of 1 cm, X-ray ([3]; X-ray through 1 cm tissue): ~ 30%
radiodynamic ^1O2 generation at tissue depth of 15 cm ([3]; X-ray through 15 cm tissue): still inducible
^1O2 generation at tissue depth of 1 cm, light irradiation ([3]; light through 1 cm tissue): close to the background
afterglow half-life [4]: 18.4 min
afterglow life-time [4]: 25 h
^1O2 generation / radiodynamic activity [5]: the highest
